According to patent publication US6727237B2, “Inhibitors of bacterial NAD synthetase” (priority 1998, dated 2004):

Molecular target: T1, bacterial NAD synthetase enzyme (Bacillus subtilis, UniProt P08164)
T1 sequence (P08164 2-272 limits assumed): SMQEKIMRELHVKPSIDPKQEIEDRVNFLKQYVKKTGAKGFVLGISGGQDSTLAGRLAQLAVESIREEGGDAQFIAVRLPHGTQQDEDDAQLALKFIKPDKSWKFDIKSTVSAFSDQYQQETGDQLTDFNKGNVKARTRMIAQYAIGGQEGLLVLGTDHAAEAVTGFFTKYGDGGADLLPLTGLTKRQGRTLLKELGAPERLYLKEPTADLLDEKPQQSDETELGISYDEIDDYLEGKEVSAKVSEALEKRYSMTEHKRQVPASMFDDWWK
Assay: biochemical
Format: biochemical

[1] = compound at 0.2 mM (Table 312B)
[2] = compound at 0.2 mM (Table 312A)

CC(C)c1ccc2[nH]c(CCCCCCCCOC(=O)c3ccc([N+](C)(C)C)cc3)cc2c1 [Compound 891]
IC50: 80 µM | inhibition at 250 µM: 99.9%

CN(C)c1ccc(CC(=O)OCCCCCCCCOc2ccc(C(=O)c3ccccc3)cc2)cc1 [Compound 1040]
% Inhibition [1]: 3%

C[n+]1cccc(CC(=O)OCCCCCCCc2cc3cc(C(=O)c4ccccc4)ccc3[nH]2)c1 [Compound 941]
IC50: 50 µM | inhibition at 100 µM: 100%

Fc1ccc2[nH]c(CCC[n+]3ccc4ccccc4c3)cc2c1 [Compound 558]
% Inhibition [2]: 1.27%

O=C(OCCCCCCCCOc1cccc(N2CCOCC2)c1)c1cccnc1 [Compound 1018]
% Inhibition [1]: 17%

c1ccc(-c2ccc3[nH]c(CCCC[n+]4ccc5ccccc5c4)cc3c2)cc1 [Compound 541]
% Inhibition (compound at 0.1 mM (Table 314)): 10.26%

CC(C)c1ccc2[nH]c(CCCCCCCCOC(=O)Cc3ccc[n+](C)c3)cc2c1 [Compound 936]
IC50: 60 µM | inhibition at 100 µM: 97.8%

CC(=O)c1ccccc1OCCCCCCCCOC(=O)c1ccc[n+](C)c1 [compound 1056]
% Inhibition [1]: 18%

Fc1cc(F)c2[nH]c(CCCCCCCC[n+]3ccc4ccccc4c3)cc2c1 [Compound 521]
% Inhibition [2]: 29.59%

Fc1cc(F)c2[nH]c(CCCCC[n+]3cccc4ccccc43)cc2c1 [Compound 410]
% Inhibition [2]: 8.77%

COc1ccc2[nH]c(CCCCCCCC[n+]3ccccc3)cc2c1 [Compound 377]
% Inhibition [2]: 30.12%

FC(F)(F)c1ccc2[nH]c(CCC[n+]3ccc4ccccc4c3)cc2c1 [Compound 576]
% Inhibition [2]: 2.05%

O=C(c1ccccc1)c1ccc2[nH]c(CCCCCCC[n+]3cccc4ccccc43)cc2c1 [Compound 466]
% Inhibition [2]: 5.79%

C[n+]1ccc(C(=O)OCCCCCCCCc2cc3cc(Oc4ccccc4)ccc3[nH]2)cc1 [Compound 903]
% Inhibition (compound at 0.25 mM): 95.5%

C[n+]1cccc(C(=O)OCCCCCCCCOc2ccc(N3C(=O)c4ccccc4C3=O)cc2)c1 [compound 1071]
% Inhibition [1]: 55%

COc1cccc(OCCCCCCCCOC(=O)Cc2ccc([N+](C)(C)C)cc2)c1 [Compound 1077]
% Inhibition [1]: 73%

O=C(O)c1ccc2[nH]c(CCCCCCC[n+]3ccccc3)cc2c1 [Compound 388]
% Inhibition [2]: 25.86%

COc1ccc2[nH]c(CCCCCC[n+]3ccc4ccccc4c3)cc2c1 [Compound 591]
% Inhibition [2]: 18.59%

CC(C)c1ccc2[nH]c(CCCCCCC[n+]3cccc4ccccc43)cc2c1 [Compound 430]
% Inhibition [2]: 1.20%

CC(=O)Oc1cccc(OCCCCCCCCOC(=O)Cc2ccc(N(C)C)cc2)c1 [Compound 1027]
% Inhibition [1]: 2%

CN(C)c1ccc(CC(=O)OCCCCCCCCOc2ccccc2N2CCOCC2)cc1 [Compound 1047]
% Inhibition [1]: 45%

O=[N+]([O-])c1ccc2[nH]c(CCCC[n+]3ccccc3)cc2c1 [Compound 712]
% Inhibition [2]: 12.59%

CC(=O)c1ccc2[nH]c(CCCCCCC[n+]3ccc4ccccc4c3)cc2c1 [Compound 586]
% Inhibition [2]: 2.01%

Fc1cc(F)c2[nH]c(CCCCCCC[n+]3ccccc3)cc2c1 [Compound 304]
% Inhibition (compound at 0.1 mM (Table 314)): 29.48%

COC(=O)c1cc2cc(OCc3ccccc3)ccc2n1CCCCCCOC(=O)c1ccc[n+](C)c1 [Compound 975]
IC50: 38 µM | inhibition at 100 µM: 55.2%

CC(=O)c1ccc2[nH]c(CCCCOC(=O)c3ccc[n+](C)c3)cc2c1 [Compound 922]
% Inhibition (compound at 0.25 mM): 87.4%

FC(F)(F)c1ccc2[nH]c(CCCCCCCC[n+]3cccc4ccccc43)cc2c1 [Compound 473]
% Inhibition [2]: 15.06%

C[n+]1cccc(C(=O)OCCCCCCCCn2ccc3cc([N+](=O)[O-])ccc32)c1 [Compound 867]
% Inhibition [2]: 70.33%

O=[N+]([O-])c1cc([N+](=O)[O-])c2[nH]c(CCCCCCCC[n+]3cccc4ccccc43)cc2c1 [Compound 419]
% Inhibition [2]: 24.28%

c1ccc(Oc2ccc3[nH]c(CCCC[n+]4ccccc4)cc3c2)cc1 [Compound 349]
IC50: 75 µM | inhibition at 100 µM: 86.6%

C[N+](C)(C)c1cccc(C(=O)OCCCCCCCc2cc3ccc(C(F)(F)F)cc3[nH]2)c1 [Compound 869]
IC50: 40 µM
